Among the data in patent publication US11142515B2, “Pyrazolyl-ureas as kinase inhibitors” (RESPIVERT LIMITED, priority 2014, dated 2021) are IC50 and EC50 values, retold here.

What is called IC50 is the concentration needed to halve the response being measured.

The target in assay [1] is T1, GSK 3α enzyme isoform (Homo sapiens, UniProt P49840).
T1 construct: purchased Life Technologies
Description: GSK 3α enzyme inhibition (Z-LYTE FRET). Conditions: Table 2A; read-out: IC50 Values for Enzyme Inhibition GSK3α. It is filed as biochemical. The method, then:
The enzyme inhibitory activities of compounds disclosed herein were determined by FRET using synthetic peptides labelled with both donor and acceptor fluorophores (Z-LYTE, Life Technologies, Paisley, UK).
The GSK3a protein (500 ng/mL, 2.5 μL) was incubated with the test compound (2.5 μL at either 40 μg/mL, 12 μg/mL, 4 μg/mL, 1.2 μg/mL, 0.4 μg/mL, 0.12 μg/mL, 0.04 μg/mL, 0.012 μg/mL, 0.004 μg/mL or 0.0012 μg/mL) for 2 h at RT. The FRET peptide (8 μM, 2.5 μL), which is a phosphorylation target for GSK3α, and ATP (40 μM, 2.5 μL) was then added to the enzyme/compound mixture and the resulting mixture incubated for 1 h at RT. Development reagent (protease, 5 μL) was added for 1 h prior to detection in a fluorescence microplate reader (EnVision, Perkin Elmer).
In all cases, the site-specific protease cleaves non-phosphorylated peptide only and eliminates the FRET signal. Phosphorylation levels of each reaction were calculated using the ratio of coumarin emission (donor) over fluorescein emission (acceptor), for which low ratios indicate high phosphorylation and high ratios indicate low phosphorylation levels.

The target of assay [2] is T2, p38 MAPKα isoform (MAPK14) (Homo sapiens, UniProt Q16539).
T2 construct: purchased Life Technologies
Kind of assay: p38 MAPKα enzyme inhibition (Z-LYTE FRET). The class given is biochemical. Particulars: Table 2A; read-out: IC50 Values for Enzyme Inhibition p38 MAPKα. The essentials:
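Recombinant human MAPK14 (40 ng/mL stock) was preincubated 2 h at RT with compound (stock dilutions 0.0012-40 μg/mL). The Z-LYTE FRET read-out used a MAPKAP-K2-derived peptide, and protease development for 1 h cleaved only non-phosphorylated peptide. Phosphorylation was calculated from the coumarin/fluorescein emission ratio.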

Assay [3] relates to IL-8 release in d-U937 cells. Description: LPS-induced IL-8 release in d-U937 cells. It is filed as cell-based. Conditions: Homo sapiens, dU937, LPS 0.1 μg/mL 4 h. How it is done: (§1) U937 cells, a human monocytic cell line, were differentiated into macrophage-type cells by incubation with PMA (100-200 ng/mL) for 48 to 72 h. Cells were pre-incubated with final […] concentrations of test compound for 2 h and were then stimulated with LPS (0.1 μg/mL; from E. coli: O111:B4, Sigma) for 4 h. The supernatant was collected for determination of TNFα and IL-8 concentrations by sandwich ELISA (Duo-set, R&D systems). […] The relative 50% effective concentration (REC50) was determined from the resultant concentration-response curve. The inhibition of IL-8 production was calculated at each concentration of test compound by comparison with vehicle control.

Assay [4] relates to TNFα release in d-U937 cells. Kind of assay: LPS-induced TNFα release in d-U937 cells. Further: relative to 10 µg/mL BIRB-796. Conditions: Homo sapiens, dU937; read-out: LPS Induced Release TNFα REC50 (dU937). It is filed as cell-based. The method, then:
as §1

T2 sequence (Q16539 whole entry, canonical isoform): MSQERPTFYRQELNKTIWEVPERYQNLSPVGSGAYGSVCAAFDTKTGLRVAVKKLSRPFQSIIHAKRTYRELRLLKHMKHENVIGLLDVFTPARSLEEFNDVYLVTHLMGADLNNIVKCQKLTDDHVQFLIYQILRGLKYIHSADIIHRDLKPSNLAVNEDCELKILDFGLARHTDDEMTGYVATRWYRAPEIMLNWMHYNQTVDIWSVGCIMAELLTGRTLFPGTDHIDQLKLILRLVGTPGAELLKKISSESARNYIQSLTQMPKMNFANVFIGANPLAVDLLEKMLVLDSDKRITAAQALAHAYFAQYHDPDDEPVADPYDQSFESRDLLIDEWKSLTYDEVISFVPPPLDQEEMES
T1 sequence (P49840 whole entry, canonical isoform): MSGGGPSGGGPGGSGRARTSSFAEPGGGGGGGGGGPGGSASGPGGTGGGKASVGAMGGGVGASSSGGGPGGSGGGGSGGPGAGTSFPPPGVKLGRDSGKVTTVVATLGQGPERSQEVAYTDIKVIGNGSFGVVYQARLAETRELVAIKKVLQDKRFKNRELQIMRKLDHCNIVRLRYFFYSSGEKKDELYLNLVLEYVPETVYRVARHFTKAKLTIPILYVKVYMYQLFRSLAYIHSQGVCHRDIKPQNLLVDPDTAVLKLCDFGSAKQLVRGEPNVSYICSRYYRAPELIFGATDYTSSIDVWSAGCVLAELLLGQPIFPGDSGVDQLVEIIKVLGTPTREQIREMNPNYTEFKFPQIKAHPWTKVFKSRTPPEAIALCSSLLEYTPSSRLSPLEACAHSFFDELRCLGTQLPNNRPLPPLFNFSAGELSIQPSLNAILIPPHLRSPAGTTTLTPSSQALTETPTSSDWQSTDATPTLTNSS

On to `CC(C)(C)c1cc(NC(=O)Nc2ccc(OCc3ccnc(Nc4cncc(C5CC5)n4)c3)c3ccccc23)n(-c2ccc(CO)cc2)n1` [Example 25], for which the concentration for half-maximal inhibition (IC50) was determined as 0.523 µM in assay [1], 0.007 µM in assay [2] and 0.0058 µM in assay [3]. The EC50 in assay [4] was found to be 0.0014 µM.

Take `Cc1ccc(-n2nc(C(C)(C)C)cc2NC(=O)Nc2ccc(OCc3ccnc(Nc4cnc(CO)cn4)c3)c3ccccc23)s1` [Example 26]: the IC50 turned out to be 0.469 µM in assay [1], 0.007 µM in assay [2] and 0.0146 µM in assay [3]. The EC50 in assay [4] worked out at 0.0045 µM.

As for `Cc1cc(-n2nc(C(C)(C)C)cc2NC(=O)Nc2ccc(OCc3ccnc(Nc4cncc(C5CC5)n4)c3)c3ccccc23)cs1` [Example 27], the concentration for half-maximal inhibition (IC50) was determined as 1.03 µM in assay [1], 0.017 µM in assay [2] and 0.004 µM in assay [3]. Further, the EC50 in assay [4] was 0.0043 µM.

For the molecule `CNC(=O)Cc1cncc(Nc2cc(COc3ccc(NC(=O)Nc4cc(C(C)(C)C)nn4-c4ccc(C)cc4)c4ccccc34)ccn2)n1` [Example 28], the figures for the half-maximal inhibitory concentration (IC50) in assay [1], in assay [2] and in assay [3] were 5.17 µM, 0.005 µM and 0.0299 µM, respectively. The EC50 in assay [4] worked out at 0.0027 µM.

Regarding `Cc1ccc(-n2nc(C(C)(C)C)cc2NC(=O)Nc2ccc(OCc3ccnc(Nc4cnc(CC(=O)N(C)C)cn4)c3)c3ccccc23)cc1` [Example 29], the IC50 is 0.207 µM in assay [1], 0.005 µM in assay [2] and 0.0085 µM in assay [3]. For the same molecule, the EC50 in assay [4] was found to be 0.0042 µM.

Consider `Cc1ccc(-n2nc(C(C)(C)C)cc2NC(=O)Nc2ccc(OCc3ccnc(Nc4cnc(CC(N)=O)cn4)c3)c3ccccc23)cc1` [Example 30], for which the results for the IC50 in assay [1], in assay [2] and in assay [3] were 1.49 µM, 0.002 µM and 0.0069 µM, respectively. In addition, the EC50 in assay [4] came to 0.0052 µM.

As for `Cc1ccc(-n2nc(C(C)(C)C)cc2NC(=O)Nc2ccc(OCc3ccnc(Nc4cncc(CC(N)=O)n4)c3)c3ccccc23)cc1` [Example 32], the IC50 amounted to 1.32 µM in assay [1], 0.003 µM in assay [2] and 0.015 µM in assay [3]. In addition, the EC50 in assay [4] came to 0.013 µM.

`CNC(=O)Cc1cnc(Nc2cc(COc3ccc(NC(=O)Nc4cc(C(C)(C)C)nn4-c4ccc(C)cc4)c4ccccc34)ccn2)cn1` [Example 33]: the IC50 worked out at 5.96 µM in assay [1], 0.003 µM in assay [2] and 0.0424 µM in assay [3]. In assay [4], the EC50 worked out at 0.0026 µM.

As for `CC(C)(C)c1cc(NC(=O)Nc2ccc(OCc3ccnc(Nc4cncc(C5CC5)n4)c3)c3ccccc23)n(-c2ccc(O)cc2)n1` [Example 34], the values for the IC50 in assay [1], in assay [2] and in assay [3] were 1.2 µM, 0.013 µM and 0.0083 µM, respectively. For the same molecule, the EC50 in assay [4] turned out to be 0.0054 µM.

As for `Cc1ccc(-n2nc(C(C)(C)C)cc2NC(=O)Nc2ccc(OCc3ccnc(Nc4cnc(C(=O)N5CCOCC5)cn4)c3)c3ccccc23)cc1` [Example 35], the IC50 in assay [1] came out at 3.43 µM; in assay [2] it was 0.009 µM; in assay [3] it was 0.102 µM. In addition, the EC50 in assay [4] came to 0.0121 µM.

For `Cc1ccc(-n2nc(C(C)(C)C)cc2NC(=O)Nc2ccc(OCc3ccnc(Nc4cnc(C(=O)N5CCCC5)cn4)c3)c3ccccc23)cc1` [Example 36], the IC50 in assay [1] was greater than 13.8 µM; in assay [2] it was 0.019 µM; in assay [3], 0.0028 µM. Moreover, in assay [4], the EC50 came out at 0.0016 µM.

`CCc1cnc(Nc2cc(COc3ccc(NC(=O)Nc4cc(C(C)(C)C)nn4-c4ccc(C)cc4)c4ccccc34)ccn2)cn1` [Example 37]: the IC50 is greater than 10 µM in assay [1], 0.024 µM in assay [2] and 0.0193 µM in assay [3]. For the same molecule, the EC50 in assay [4] stood at 0.0143 µM.

Regarding `COc1ccc(-n2nc(C(C)(C)C)cc2NC(=O)Nc2ccc(OCc3ccnc(Nc4cnccn4)c3)c3ccccc23)cc1` [Example 38], the 50% inhibitory concentration (IC50) amounted to 5.99 µM in assay [1], 0.014 µM in assay [2] and 0.0096 µM in assay [3]. In assay [4], the EC50 was 0.0027 µM.

For the molecule `COc1ccc(-n2nc(C(C)(C)C)cc2NC(=O)Nc2ccc(OCc3ccnc(Nc4cnccn4)c3)c3ccccc23)cc1C` [Example 39], the results for the IC50 in assay [1], in assay [2] and in assay [3] were greater than 15.9 µM, 0.018 µM and 0.0128 µM, respectively. Moreover, the EC50 in assay [4] was 0.0034 µM.

Regarding `Cc1cccc(-n2nc(C(C)(C)C)cc2NC(=O)Nc2ccc(OCc3ccnc(Nc4cnccn4)c3)c3ccccc23)c1` [Example 40], the values for the IC50 in assay [1], in assay [2] and in assay [3] were 8.78 µM, 0.011 µM and 0.0117 µM, respectively. For the same molecule, the EC50 in assay [4] stood at 0.003 µM.

Regarding `CC(C)c1ccc(-n2nc(C(C)(C)C)cc2NC(=O)Nc2ccc(OCc3ccnc(Nc4cnccn4)c3)c3ccccc23)cc1` [Example 41], the results for the IC50 in assay [1], in assay [2] and in assay [3] were 3.57 µM, 0.189 µM and 0.0438 µM, respectively. For the same molecule, the EC50 in assay [4] amounted to 0.003 µM.

With `CCc1ccc(-n2nc(C(C)(C)C)cc2NC(=O)Nc2ccc(OCc3ccnc(Nc4cnccn4)c3)c3ccccc23)cc1` [Example 42], the IC50 is 6.94 µM in assay [1], 0.015 µM in assay [2] and 0.0183 µM in assay [3]. Further, the EC50 in assay [4] was determined as 0.0043 µM.

With `COCCNC(=O)c1cnc(Nc2cc(COc3ccc(NC(=O)Nc4cc(C(C)(C)C)nn4-c4ccc(C)s4)c4ccccc34)ccn2)cn1` [Example 43], the IC50 in assay [1] turned out to be 7.92 µM; in assay [2], 0.012 µM; in assay [3] it was 0.0414 µM. In addition, the EC50 in assay [4] worked out at 0.0168 µM.

As for `COCCNC(=O)c1cnc(Nc2cc(COc3ccc(NC(=O)Nc4cc(C(C)(C)C)nn4-c4csc(C)c4)c4ccccc34)ccn2)cn1` [Example 44], the concentration for half-maximal inhibition (IC50) in assay [1] was greater than 14.2 µM; in assay [2] it was 0.011 µM; in assay [3], 0.0522 µM. In assay [4], the EC50 was 0.0882 µM.

For the molecule `CC(C)(C)c1cc(NC(=O)Nc2ccc(OCc3ccnc(Nc4cnccn4)c3)c3ccccc23)n(-c2ccc(Cl)cc2)n1` [Example 45], the values for the concentration for half-maximal inhibition (IC50) in assay [1], in assay [2] and in assay [3] were 1.9 µM, 0.12 µM and 0.0171 µM, respectively. Also, the EC50 in assay [4] stood at 0.0035 µM.

On to `COc1ccc(-n2nc(C(C)(C)C)cc2NC(=O)Nc2ccc(OCc3ccnc(Nc4cnccn4)c3)c3ccccc23)cc1Cl` [Example 46], for which the IC50 in assay [1] was determined as 7.05 µM; in assay [2] it was 0.085 µM; in assay [3], 0.268 µM. The EC50 in assay [4] stood at 0.0007 µM.

In the case of `Cc1ccc(-n2nc(C(C)(C)C)cc2NC(=O)Nc2ccc(OCc3ccnc(Nc4cncc(C5CCC5)n4)c3)c3ccccc23)cc1` [Example 47], the IC50 in assay [1] is 2.8 µM; in assay [2], 0.087 µM; in assay [3], 0.0156 µM. Moreover, the EC50 in assay [4] amounted to 0.0058 µM.

As to `Cc1ccc(-n2nc(C(C)(C)C)cc2NC(=O)Nc2ccc(OCc3ccnc(Nc4cncc(C5CCCC5)n4)c3)c3ccccc23)cc1` [Example 48], the IC50 in assay [1] was 4.21 µM; in assay [2] it was 0.091 µM; in assay [3], 0.0167 µM. Also, the EC50 in assay [4] came out at 0.0003 µM.

For the molecule `CC(C)(C)c1cc(NC(=O)Nc2ccc(OCc3ccnc(Nc4cnccn4)c3)c3ccccc23)n(-c2cccc(F)c2)n1` [Example 49], the concentration for half-maximal inhibition (IC50) in assay [1] stood at 4.48 µM; in assay [2] it was 0.011 µM; in assay [3], 0.0243 µM. Also, the EC50 in assay [4] came out at 0.0023 µM.

`CC(C)(C)c1cc(NC(=O)Nc2ccc(OCc3ccnc(Nc4cnccn4)c3)c3ccccc23)n(-c2cccc(Cl)c2)n1` [Example 50]: the figures for the concentration for half-maximal inhibition (IC50) in assay [1], in assay [2] and in assay [3] were 7.08 µM, 0.022 µM and 0.0303 µM, respectively. Moreover, the EC50 in assay [4] was determined as 0.0071 µM.

With `Cc1ccc(-n2nc(C(C)(C)C)cc2NC(=O)Nc2ccc(OCc3ccnc(Nc4cnccn4)c3)c3ccccc23)cc1C` [Example 51], the values for the IC50 in assay [1], in assay [2] and in assay [3] were greater than 16.3 µM, 0.014 µM and 0.0257 µM, respectively. Also, in assay [4], the EC50 came to 0.0022 µM.

For the molecule `Cc1ccc(-n2nc(C(C)(C)C)cc2NC(=O)Nc2ccc(OCc3ccnc(Nc4cnccn4)c3)c3ccccc23)cc1C(F)(F)F` [Example 52], the half-maximal inhibitory concentration (IC50) in assay [1] was greater than 15 µM; in assay [2] it was 0.116 µM; in assay [3] it was greater than 1.5 µM. Besides, the EC50 in assay [4] amounted to 0.0187 µM.
